Structures can show the parent of a compound that is named as a salt.
What follows are molecules tested on Acinetobacter baumannii ATCC 17961 (assay: Antimicrobial susceptibility testing: 90% growth inhibitory concentration (IC90) determination). Settings: ATCC17961, Acinetobacter baumannii ATCC 17961, Iso-Sensitest broth, read-out: ATCC 17961 IC90.
Format: cell-based
Outline: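 Broth microdilution in Iso-Sensitest medium, twofold series (e.g. 50 to 0.097 μM final), ~5×10^5 CFU/ml inoculum, 35±2 °C. OD600 read every 20 min over 16 h. IC90 derived from growth inhibition during logarithmic phase.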

Q: For `Cn1c(-c2cn(CC3CC3)nc2C(F)(F)F)cnc1C(=O)Nc1ccc(C(=O)NC2C3CN(C(=O)C4CCNCC4)CC32)c(Cl)c1` (stereo not shown) [Example 227, N-(3-chloro-4-((3-(piperidine-4-carbonyl)-3-azabicyclo[3.1.0]hexan-6-yl)carbamoyl)phenyl)-5-(1-(cyclopropylmethyl)-3-(trifluoromethyl)-1H-pyrazol-4-yl)-1-methyl-1H-imidazole-2-carboxamide formate], which IC90 is on record?
A: 0.262 µM

Q: `Cn1c(-c2cn(CC3CC3)nc2C(F)(F)F)cnc1C(=O)Nc1ccc(C(=O)NCC2CN(C(=O)N[C@H]3C[C@@H](N)C3)C2)c(Cl)c1` [Example 373, rac-N-(4-(((1-(((1s,3s)-3-aminocyclobutyl)carbamoyl)aze-tidin-3-yl)methyl)carbamoyl)-3-chlorophenyl)-5-(1-(cyclopropylmethyl)-3-(trifluoromethyl)-1H-pyrazol-4-yl)-1-methyl-1H-imidazole-2-carboxamide formate] was tested. Which IC90 did it give?
A: 0.494 µM

Q: How did the IC90 turn out when `C[C@H](N)C(=O)N1CCN(C(=O)c2ccc(NC(=O)c3ncc(-c4cn(CC#N)nc4C(F)(F)F)n3C)cc2Cl)CC1` [Example 71, N-[4-[4-[(2S)-2-aminopropanoyl]piperazine-1-carbonyl]-3-chlorophenyl]-5-[1-(cyanomethyl)-3-(trifluoromethyl)pyrazol-4-yl]-1-methylimidazole-2-carboxamide;2,2,2-trifluoroacetic acid] was run?
A: 0.216 µM

Q: For `Cn1c(-c2cn(CC3CC3)nc2C(F)(F)F)cnc1C(=O)Nc1ccc(C(=O)N2CCN(C(=O)[C@H]3[C@@H]4CNC[C@@H]43)CC2)c(F)c1` [Example 194, rac-N-(4-(4-((1R,5S,6r)-3-azabicyclo[3.1.0]hexane-6-carbonyl)piperazine-1-carbonyl)-3-fluorophenyl)-5-(1-(cyclopropylmethyl)-3-(trifluoromethyl)-1H-pyrazol-4-yl)-1-methyl-1H-imidazole-2-carboxamide hydrochloride], which IC90 is on record?
A: 0.193 µM

Q: Which IC90 does the source give for `C#CCn1cc(-c2cnc(C(=O)Nc3ccc(C(=O)N4CCN(C(=O)N5C[C@@H]6C[C@H]5CN6)CC4)c(Cl)c3)n2C)c(C(F)(F)F)n1` [Example 88, N-[3-chloro-4-[4-[(1S,4S)-2,5-diazabicyclo[2.2.1]heptane-2-carbonyl]piperazine-1-carbonyl]phenyl]-1-methyl-5-[1-prop-2-ynyl-3-(trifluoromethyl)pyrazol-4-yl]imidazole-2-carboxamide] here?
A: 0.17 µM

Q: With `Cn1c(-c2cn(C3CC3)nc2C(F)(F)F)cnc1C(=O)Nc1ccc(C(=O)N2CCC(CN)CC2)c(Cl)c1` [Example 207, N-(4-(4-(aminomethyl)piperidine-1-carbonyl)-3-chlorophenyl)-5-(1-cyclopropyl-3-(trifluoromethyl)-1H-pyrazol-4-yl)-1-methyl-1H-imidazole-2-carboxamide formate] as the molecule, how does the IC90 read?
A: 0.226 µM

Q: `COC1CN(C(=O)N[C@H]2CNC[C@@H]2O)CC1NC(=O)c1ccc(NC(=O)c2ncc(-c3cn(C4CC4(F)F)nc3C(F)(F)F)n2C)cc1Cl` (mixture of isomers) [Example 350, rac-N-(3-chloro-4-((trans-1-(((3R,4R)-4-hydroxypyrrolidin-3-yl)carbamoyl)-4-methoxypyrrolidin-3-yl)carbamoyl)phenyl)-5-(1-(2,2-difluorocyclopropyl)-3-(trifluoromethyl)-1H-pyrazol-4-yl)-1-methyl-1H-imidazole-2-carboxamide formate] was tested. Which IC90 did it give?
A: 0.45 µM

Q: How did the IC90 turn out when `Cn1c(-c2cn(C3CC3)nc2C(F)(F)F)cnc1C(=O)Nc1ccc(C(=O)N2CCN(C(=O)[C@H]3CCNC3)CC2)c(Cl)c1` [Example 299, (S)-N-(3-chloro-4-(4-(pyrrolidine-3-carbonyl)piperazine-1-carbonyl)phenyl)-5-(1-cyclopropyl-3-(trifluoromethyl)-1H-pyrazol-4-yl)-1-methyl-1H-imidazole-2-carboxamide hydrochloride] was run?
A: 0.366 µM

Q: For `Cn1c(-c2cn(CCF)nc2C(F)(F)F)cnc1C(=O)Nc1ccc(C(=O)N2CCN(C(=O)NC3CNC3)CC2)c(Cl)c1` [Example 144, N-(azetidin-3-yl)-4-[2-chloro-4-[[5-[1-(2-fluoroethyl)-3-(trifluoromethyl)pyrazol-4-yl]-1-methylimidazole-2-carbonyl]amino]benzoyl]piperazine-1-carboxamide;formic acid], which IC90 is on record?
A: 0.621 µM

Q: For `Cn1c(-c2cn(CC(F)F)nc2C(F)(F)F)cnc1C(=O)Nc1ccc(S(=O)(=O)N2CCNCC2)c(Cl)c1` [Example 188, N-(3-chloro-4-(piperazin-1-ylsulfonyl)phenyl)-5-(1-(2,2-difluoroethyl)-3-(trifluoromethyl)-1H-pyrazol-4-yl)-1-methyl-1H-imidazole-2-carboxamide hydrochloride], which IC90 is on record?
A: 0.152 µM

Q: With `Cn1c(-c2cn(CC#N)nc2C(F)(F)F)cnc1C(=O)Nc1ccc(C(=O)N[C@H]2C[C@@H](NC(=O)N3CCC(CN)C3)C2)c(Cl)c1` (stereo partly shown) [Example 359, N-[4-[[3-[[3-(aminomethyl)pyrrolidine-1-carbonyl]amino]cyclobutyl]car-bamoyl]-3-chloro-phenyl]-5-[1-(cyanomethyl)-3-(trifluoromethyl)pyrazol-4-yl]-1-methyl-imidazole-2-carboxamide; formic acid] as the molecule, how does the IC90 read?
A: 0.467 µM

Q: Which IC90 does the source give for `Cn1c(-c2cn(CC(F)F)nc2C(F)(F)F)cnc1C(=O)Nc1ccc(C(=O)N2CCN(C(=O)C3CCNCC3)CC2)c(F)c1` [Example 301, 5-(1-(2,2-difluoroethyl)-3-(trifluoromethyl)-1H-pyrazol-4-yl)-N-(3-fluoro-4-(4-(piperidine-4-carbonyl)piperazine-1-carbonyl)phenyl)-1-methyl-1H-imidazole-2-carboxamide] here?
A: 0.369 µM

Q: How did the IC90 turn out when `COCCOCCn1cc(-c2cnc(C(=O)Nc3ccc(C(=O)N4CCN(C(=O)C5CCNCC5)CC4)c(Cl)c3)n2C)c(C(F)(F)F)n1` [Example 25, N-(3-chloro-4-(4-(piperidine-4-carbonyl)piperazine-1-carbonyl)phenyl)-5-(1-(2-(2-methoxyethoxy)ethyl)-3-(trifluoromethyl)-1H-pyrazol-4-yl)-1-methyl-1H-imidazole-2-carboxamide] was run?
A: 2.01 µM

Q: Which IC90 does the source give for `Cn1c(-c2cn(CC3CCC3)nc2C(F)(F)F)cnc1C(=O)Nc1ccc(C(=O)N2CCN(C(=O)C3CCN3)CC2)c(Cl)c1` (stereo not shown) [Example 281, N-(4-(4-(azetidine-2-carbonyl)piperazine-1-carbonyl)-3-chlorophenyl)-5-(1-(cyclobutylmethyl)-3-(trifluoromethyl)-1H-pyrazol-4-yl)-1-methyl-1H-imidazole-2-carboxamide hydrochloride] here?
A: 0.348 µM

Q: With `Cn1c(-c2cn(C3CC3(F)F)nc2C(F)(F)F)cnc1C(=O)Nc1ccc(C(=O)NC2CC3CNCC32)c(Cl)c1` (stereo not shown) [Example 319, N-(4-((3-azabicyclo[3.2.0]heptan-6-yl)carbamoyl)-3-chlorophenyl)-5-(1-(2,2-difluorocyclopropyl)-3-(trifluoromethyl)-1H-pyrazol-4-yl)-1-methyl-1H-imidazole-2-carboxamide formate] as the molecule, how does the IC90 read?
A: 0.398 µM

Same assay, conditions: Acinetobacter baumannii, ATCC17961, read-out: ATCC 17961 IC90, Acinetobacter baumannii ATCC 17961, Iso-Sensitest broth

Q: `CC(C)Cn1cc(-c2cnc(C(=O)Nc3ccc(C(=O)N4CCN(C(=O)N[C@H]5C[C@@H](N)C5)CC4)c(Cl)c3)n2C)c(C(F)(F)F)n1` [Example 292, rac-N-((1s,3s)-3-aminocyclobutyl)-4-(2-chloro-4-(5-(1-isobutyl-3-(trifluoromethyl)-1H-pyrazol-4-yl)-1-methyl-1H-imidazole-2-carboxamido)benzoyl)piperazine-1-carboxamide hydrochloride] was tested. Which IC90 did it give?
A: 0.361 µM

Reference: patent US11390604B2 (Hoffmann-La Roche Inc., priority 2019, dated 2022)
